Measurements as given in patent publication US5372940A, “D-pantolactone hydrolase and process for the preparation thereof” (Fuji Yakuhin Kogyo Kabushiki Kaisha, priority 1990, dated 1994).

Tested on: D-pantolactone hydrolase purified from Fusarium oxysporum (IFO 5942)
Test: Substrate specificity (Km) and inhibition of purified D-pantolactone hydrolase
Format: biochemical
Details: for Km: purified enzyme, the compound is the substrate, read-out: Km (Michaelis constant)
Experimental: Fusarium oxysporum (IFO 5942) was inoculated into each of thirty 2l shake flasks each containing 500 ml of culture medium containing 5% sucrose, 0.4% sodium nitrate, 0.2% dipotassium monohydrogenphosphate, 0.05% magnesium sulfate, 0.05% potassium chloride, 0.001% ferric sulfate and 0.002% zinc sulfate (pH 6.0), and subjected to shaking culture at 28° C. for 7 days. The combined culture broths were centrifuged to give 800 g of wet mass of cells. The cells were triturated by means of a DYNO®-MILL with 2.5 l of 0.1 mM dithiothreitol-containing 20 mM Tris-HCl buffer (pH 7.4), and the mixture was centrifuged to give 2.3 l of cell-free extract. […] Furthermore, 572 g of potassium chloride were added to, and dissolved in, this cell-free extract and the mixture was loaded on an Octyl sepharose CL4B column (3×28 cm) and eluted with 3M potassium chloride. 2.4 l of eluted active fractions were dialyzed against 0.1 mM dithiothreitol-containing 20 mM Tris-HCl buffer (pH 7.4). The resultant 2.9 l of enzyme solution were loaded on a DEAE Sephacel column (5.5×34 cm) and eluted with a linear gradient of 0 to 0.5M potassium chloride. 255 ml of eluted active fractions were loaded on a hydroxyapatite column (5×10 cm) and eluted with a linear gradient of 0 to 0.88M potassium phosphate buffer (pH 7.0). 425 ml of eluted active fractions were subjected to ultrafiltration using an Amicon YM 10, and 115 ml of the resultant enzyme concentrate were dialyzed against 0.1 mM dithiothreitol-containing 20 mM Tris-HCl buffer (pH 7.4). 190 ml of the enzyme solution were subjected to ultrafiltration using an Amicon YM 30 and 14.5 ml of the resultant enzyme solution was loaded on a sephacryl S-300 column (2.5×95 cm) and eluted with 0.2M potassium chloride. 44.5 ml of eluted active fractions were dialyzed against 0.1 mM dithiothreitol-containing 20 mM Tris-HCl buffer (pH 7.4), then loaded on a Q sepharose Fast Flow column (1.8×3 cm) and eluted with a linear gradient of 0 to 1M potassium chloride. 7 ml of eluted active fractions were dialyzed against 0.1 mM dithiothreitol-containing 20 mM Tris-HCl buffer (pH 7.4) to obtain 6.8 ml of purified enzyme solution.
In determining enzyme activity, the enzyme activity which hydrolyzes 1 μmol of D-pantolactone in one minute under the conditions specified below was taken as one unit (U).
50 μl of enzyme solution were added to 200 μl of 10% D-pantolactone solution in 0.5M PIPES buffer (pH 7.0). After reaction at 30° C. for 120 minutes, 250 μl of 2 mM EDTA solution in methanol were added to stop the reaction. The resultant reaction mixture was subjected to HPLC (Nucleosil 5C18 4.6×150 mm; eluent 10% methanol; rate of flow 1 ml/min; detection wavelength 230 nm) to determine the % hydrolysis. For example, where the % hydrolysis is 1%, the enzyme activity/ml of enzyme solution corresponds to 1.6×10^-2 U/ml.
Values in parentheses are those for the activity of the respective metal ions at 2.5 mM concentration as measured with the activity value in the case of no addition of metal ions taken as 100.

Km | Inhibition of enzyme activity (5 mM EDTA) | Structure (SMILES)
3.6 mM | – | O=C1O[C@@H]([C@H](O)CO)[C@H](O)[C@H]1O [D-galactonolactone]
29 mM | – | O=C1O[C@@H]([C@H](O)CO)[C@@H](O)[C@H]1O [D-gulonolactone]
– | inhibited completely | O=C(O)CN(CCN(CC(=O)O)CC(=O)O)CC(=O)O [EDTA, reference compound]
23 mM | – | O=C1O[C@@H]([C@@H](O)CO)[C@@H](O)[C@H]1O [L-mannonolactone]

Structure (SMILES) | Km | Inhibition of enzyme activity (5 mM EDTA)
CC1(C)COC(=O)[C@@H]1O [D-pantolactone] | 82 mM | –
